Values of other authors in article PMC9301920, “Physiologically Based Toxicokinetic Modeling of Bisphenols in Zebrafish (Danio rerio) Accounting for Variations in Metabolic Rates, Brain Distribution, and Liver Accumulation” (Environmental Science & Technology, 2022).

Target: Estrogen receptor (ER)
Parameters: method as in Kitamura et al. 2005
Settings: ERE-luciferase reporter assay, MCF-7 cells; ref Kitamura et al. 2005; cited from earlier work

Structure (SMILES): Oc1ccc(C2(c3ccc(O)cc3)CCCCC2)cc1 [BPZ, bisphenol Z]
- EC50: 210 nM
